Key:
[1] = tested on: Human Leukemia (HL60) xenograft; test: β-L-OddC/doxorubicin combination study in a human leukemia (HL60) xenograft survival model; format: in vivo, female SCID mice; settings: start day 10
Procedure: β-L-OddC/doxorubicin Combination Study in a Human Leukemia (HL60) Xenograft Model
A study was conducted to evaluate the synergistic or additive therapeutic effect of β-L-OddC in combination with the currently known anticancer agent Doxorubicin. The model that was utilized is a survival model consisting of female SCID mice which are inoculated in the abdomen region (i.p.) with 15×10^6 HL60 cells in log phase growth. This corresponds to day 0 of the experiment. Administration of anti-cancer drug is started 10 days after tumor cell inoculation.
10 animals were used per group for β-L-oddC alone, Doxorubicin alone and the combination of β-L-oddC with Doxorubicin. Each groups received the drugs alone or in combination intraperitoneal once daily for 5 consecutive days.
Augmentation of survival time was calculated by substracting from the median survival time of group two to six, which corresponds to the day when the fifth mouse dies, the median survival time of control group 1 and multiplying by 100.

advanced leukemia = test: Evaluation of β-L-oddC in patients with advanced leukemia previously treated with Ara-C; format: in vivo, human; settings: twelve patients treated; 30 min daily infusion for 5 consecutive days; responders 2 each at 1.08 and 1.62 mg/m2; three AML, one CML
Procedure: Evaluation of β-L-oddC in Patients with Advanced Leukemia.
The study involved treatment of patients with advanced leukemia that had been previously treated with Citarabine (Ara-C). […] Twelve patients were treated with an initial course at daily doses of 0.72 mg/m2 (4 patients), 1.08 mg/m^2 (5 patients), 1.62 mg/m^2 (3 patients) given as a daily infusion over 30 minutes for 5 consecutive days. Five patients were treated with second courses at daily doses of 1.08 mg/m^2 (3 patients), 1.62 mg/m^2 (2 patients) given over 5 consecutive days as above. 1 patient was treated with a 3rd 5 day course at the 2.43 mg/m^2 daily dose level. 4 patients (2 each at the 1.08 mg/m^2 and 1,62 mg/m^2 levels) have shown a transient decrease in peripheral blood and bone marrow blasts. Of these four patients, three had acute mylogenous leukemia and one had chronic mylogenous leukemia.

Nc1ccn([C@@H]2CO[C@H](CO)O2)c(=O)n1 [β-L-OddC, (−)-β-L-Dioxolane-Cytidine] was tested, and the “Augmentation Survival Time” value ([1]; β-L-OddC 1 mg/kg i.p. once daily for 5 days) was 55% and the “patients showing a transient decrease in peripheral blood and bone marrow blasts” value (advanced leukemia) was 4 patients.
With COc1cccc2c1C(=O)c1c(O)c3c(c(O)c1C2=O)C[C@@](O)(C(=O)CO)C[C@@H]3O[C@H]1C[C@H](N)[C@H](O)[C@H](C)O1 [Doxorubicin] the “Augmentation Survival Time” value ([1]; Doxorubicin 0.2 mg/kg i.p. once daily for 5 days) was 25% and the “Augmentation Survival Time” value ([1]; Doxorubicin 2 mg/kg i.p. once daily for 5 days) was 50%.
